# Measured values as given in the C3SDB collision cross section collection.
# Details: instrument: DT, single field, calibrated with Agilent tune mix (Agilent)
SMILES,collision cross section (N2) ([M-H]-),collision cross section (N2) ([M+H]+),further results
O=P(O)(O)OC1O[C@H](CO)[C@@H](O)[C@H](O)[C@@H]1O (stereo partly drawn) [D-Mannose 1-phosphate],143.99 Å²,–,collision cross section (N2) ([M+Na]+): 158.3 Å²
O=C(O)[C@H]1CCCN1 [D-Proline],122.49 Å²,125 Å²,–
"O=C(COP(=O)(O)O)[C@H](O)[C@H](O)COP(=O)(O)O [D-Ribulose 1,5-bisphosphate]",–,–,collision cross section (N2) ([M+Na-2H]-): 150.9 Å²; collision cross section (N2) ([M+Na]+): 163.3 Å²
OC1OC[C@@H](O)[C@H](O)[C@H]1O (stereo partly drawn) [D-Xylose],–,–,collision cross section (N2) ([M+Na]+): 134.6 Å²
Nc1ncnc2c1ncn2[C@H]1C[C@H](O)[C@@H](CO)O1 [Deoxyadenosine],152.2 Å²,152.3 Å²,–
O=c1nc[nH]c2c1ncn2[C@H]1C[C@H](O)[C@@H](CO)O1 [Deoxyinosine],153.4 Å²,151.7 Å²,–
O=P(O)(O)OC[C@H]1O[C@@H](O)C[C@@H]1O [Deoxyribose 5-phosphate],–,–,collision cross section (N2) ([M+Na]+): 148.4 Å²
CC(C)(COP(=O)(O)OP(=O)(O)OC[C@H]1O[C@@H](n2cnc3c(N)ncnc32)[C@H](O)[C@@H]1O)[C@@H](O)C(=O)NCCC(=O)NCCS [Dephosphocoenzyme A],232.51 Å²,238.6 Å²,–
CC(C)[C@@H](C)/C=C/[C@@H](C)[C@H]1CC[C@H]2/C(=C/C=C3\C[C@@H](O)CC[C@@H]3C)CCC[C@]12C [Dihydrotachysterol],–,205.8 Å²,–
CC(C)=CCOP(=O)(O)OP(=O)(O)O [Dimethylallyl pyrophosphate],143.1 Å²,–,–
OC[C@@H](O)[C@H](O)[C@H](O)[C@@H](O)CO [Dulcitol],128.77 Å²,–,collision cross section (N2) ([M+Na]+): 141.7 Å²
CC/C=C\C/C=C\C/C=C\C/C=C\C/C=C\CCCC(=O)O [Eicosapentaenoic acid],178.53 Å²,–,–
C[C@]12CC[C@@H]3c4ccc(OS(=O)(=O)O)cc4CC[C@H]3[C@@H]1CCC2=O [Estrone 3-sulfate],188.85 Å²,–,–
C[C@]12CC[C@@H]3c4ccc(O)cc4CC[C@H]3[C@@H]1CCC2=O [Estrone],170.63 Å²,164.3 Å²,–
O=c1cc(-c2ccccc2)oc2ccccc12 [Flavone],–,146.7 Å²,–
Nc1nc(=O)c2nc(CNc3ccc(C(=O)N[C@@H](CCC(=O)O)C(=O)O)cc3)cnc2[nH]1 [Folate],–,195.5 Å²,–
C[C@@H]1OC(OP(=O)(O)OP(=O)(O)OC[C@H]2O[C@@H](n3cnc4c(=O)nc(N)[nH]c43)[C@H](O)[C@@H]2O)[C@@H](O)[C@H](O)[C@@H]1O (stereo partly drawn) [GDP-L-Fucose],206.72 Å²,217.2 Å²,–
Nc1nc(=O)c2ncn([C@@H]3O[C@H](COP(=O)(O)OP(=O)(O)O[C@H]4O[C@H](CO)[C@@H](O)[C@H](O)[C@H]4O)[C@@H](O)[C@H]3O)c2[nH]1 [GDP-glucose],208.72 Å²,218.9 Å²,–
Nc1nc(=O)c2ncn([C@@H]3O[C@H](COP(=O)(O)OP(=O)(O)O)[C@@H](O)[C@H]3O)c2[nH]1 [GDP],–,191.5 Å²,–
OC[C@H]1O[C@H](OC2[C@@H](O)[C@H](O)C(O)[C@H](O)[C@@H]2O)[C@H](O)[C@@H](O)[C@H]1O (some centres not stated) [Galactinol],–,–,collision cross section (N2) ([M+Na-2H]-): 168.98 Å²; collision cross section (N2) ([M+Na]+): 177.7 Å²

SMILES,collision cross section (N2) ([M-H]-),collision cross section (N2) ([M+H]+),further results
O=Cc1cc(O)ccc1O [Gentisaldehyde],119.54 Å²,122 Å²,–
N[C@@H](CCC(=O)N[C@@H](CSSC[C@H](NC(=O)CC[C@H](N)C(=O)O)C(=O)NCC(=O)O)C(=O)NCC(=O)O)C(=O)O [Glutathione disulfide],–,224.7 Å²,–
C[N+](C)(C)CCOP(=O)([O-])OC[C@H](O)CO [Glycerophosphocholine],–,155.5 Å²,–
C[C@H](CCC(=O)NCC(=O)O)[C@H]1CC[C@H]2[C@@H]3[C@H](O)C[C@@H]4C[C@H](O)CC[C@]4(C)[C@H]3CC[C@]12C [Glycochenodeoxycholate],198.85 Å²,–,collision cross section (N2) ([M+Na]+): 203.3 Å²
C[C@H](CCC(=O)NCC(=O)O)[C@H]1CC[C@H]2[C@@H]3CC[C@@H]4C[C@H](O)CC[C@]4(C)[C@H]3C[C@H](O)[C@]12C [Glycodeoxycholic acid],197.81 Å²,–,collision cross section (N2) ([M+Na]+): 203.9 Å²
NC(N)=NCC(=O)O [Guanidoacetic acid],–,124.8 Å²,–
Nc1nc(=O)c2ncn([C@@H]3O[C@H](COP(=O)(O)OP(=O)(O)O[C@H]4O[C@H](CO)[C@@H](O)[C@H](O)[C@@H]4O)[C@@H](O)[C@H]3O)c2[nH]1 [Guanosine diphosphate mannose],207.35 Å²,–,collision cross section (N2) ([M+Na]+): 220.9 Å²
CC(C)(COP(=O)(O)OP(=O)(O)OC[C@H]1O[C@@H](n2cnc3c(N)ncnc32)[C@H](O)[C@@H]1OP(=O)(O)O)[C@@H](O)C(=O)NCCC(=O)NCCSC(=O)C[C@@](C)(O)CC(=O)O [HMG-CoA],259.35 Å²,–,–
NCCc1cnc[nH]1 [Histamine],–,120 Å²,–
O=C(O)CC[C@@](O)(CC(=O)O)C(=O)O [Homocitrate],129.99 Å²,–,collision cross section (N2) ([M+Na]+): 145 Å²
O=C(O)CC(C(=O)O)C(O)C(=O)O (configuration not stated) [Isocitrate],125.26 Å²,–,–
N[C@@H](C[C@@H](O)C(=O)O)C(=O)O [L-Erythro-4-Hydroxyglutamic acid],–,135.8 Å²,collision cross section (N2) ([M-H2O-H]-): 123.86 Å²
C[C@@H]1OC(O)[C@@H](O)[C@H](O)[C@@H]1O (stereo partly drawn) [L-Fucose],–,–,collision cross section (N2) ([M+Na]+): 144.6 Å²
NC(=O)CC[C@H](N)C(=O)O [L-Glutamine],–,–,collision cross section (N2) ([M+Na]+): 133.7 Å²
N[C@H](CO)Cc1cnc[nH]1 [L-Histidinol],126.11 Å²,128.3 Å²,–
O=C(O)[C@H](O)[C@@H](O)CO [L-Threonate],116.84 Å²,–,–
N[C@@H](Cc1cc(I)c(Oc2cc(I)c(O)c(I)c2)c(I)c1)C(=O)O [L-Thyroxine],–,216.2 Å²,collision cross section (N2) ([M+Na-2H]-): 194.19 Å²
CCCCCCCCCCCC(=O)SCCNC(=O)CCNC(=O)[C@H](O)C(C)(C)COP(=O)(O)OP(=O)(O)OC[C@H]1O[C@@H](n2cnc3c(N)ncnc32)[C@H](O)[C@@H]1OP(=O)(O)O [Lauroyl-CoA],283.18 Å²,284 Å²,–
N[C@@H](Cc1cc(I)c(Oc2ccc(O)c(I)c2)c(I)c1)C(=O)O [Liothyronine],–,209.7 Å²,collision cross section (N2) ([M+Na-2H]-): 185.23 Å²
N#CC(O)c1ccccc1 (configuration not stated) [Mandelonitrile],–,128.9 Å²,–

SMILES,collision cross section (N2) ([M-H]-),collision cross section (N2) ([M+H]+),further results
COc1ccc2[nH]cc(CCNC(C)=O)c2c1 [Melatonin],153.53 Å²,154.3 Å²,–
CC1=CC(=O)c2ccccc2C1=O [Menadione (Vitamin K3)],–,134.6 Å²,–
CC1=CC(=O)c2ccccc2C1=O [Menadione],129.79 Å²,–,–
CCCCCCCCCCCCCC(=O)SCCNC(=O)CCNC(=O)C(O)C(C)(C)COP(=O)(O)OP(=O)(O)OC[C@H]1O[C@@H](n2cnc3c(N)ncnc32)[C@H](O)[C@@H]1OP(=O)(O)O (some centres not stated) [Myristoyl-coenzyme A],290.65 Å²,289.9 Å²,–
Cn1cc(C(N)=O)ccc1=O [N1-Methyl-2-pyridone-5-carboxamide],–,132.1 Å²,–
"CN(C)c1nc(=O)c2ncn([C@@H]3O[C@H](CO)[C@@H](O)[C@H]3O)c2[nH]1 [N2,N2-Dimethylguanosine]",169.16 Å²,170.6 Å²,–
CC(=O)Nc1ccn([C@@H]2O[C@H](CO)[C@@H](O)[C@H]2O)c(=O)n1 [N4-Acetylcytidine],161.4 Å²,162.7 Å²,–
CC(=O)NCCCC[C@H](N)C(=O)O [N6-Acetyl-L-lysine],139.75 Å²,142.3 Å²,–
CC(=O)N[C@H]1C(O)O[C@H](COP(=O)(O)O)[C@@H](O)[C@@H]1O (stereo partly drawn) [N-Acetyl-D-Glucosamine 6-Phosphate],152.83 Å²,–,collision cross section (N2) ([M+Na]+): 164 Å²
CC(=O)N[C@H]1[C@H]([C@H](O)[C@H](O)CO)OC(O)(C(=O)O)C[C@@H]1O (some centres not stated) [N-Acetylneuraminic acid],–,–,collision cross section (N2) ([M+Na]+): 168.6 Å²
CC(=O)Nc1ccccc1 [N-Phenylacetamide],124.17 Å²,–,–
NC(=O)N[C@@H](CC(=O)O)C(=O)O [N-carbamoyl-L-aspartate],–,–,collision cross section (N2) ([M+Na]+): 139.1 Å²
O=C([O-])c1cccnc1 [Nicotinate],–,124 Å²,–
CC[C@H](C)[C@@H]1NC(=O)[C@H](Cc2ccc(O)cc2)NC(=O)[C@@H](N)CSSC[C@@H](C(=O)N2CCC[C@H]2C(=O)N[C@@H](CC(C)C)C(=O)NCC(N)=O)NC(=O)[C@H](CC(N)=O)NC(=O)[C@H](CCC(N)=O)NC1=O [Oxytocin],294.98 Å²,303.8 Å²,–
CCCCCCCCCCCCCCCC=O [Palmitaldehyde],163.36 Å²,–,–
O=C(O)CNC(=O)Cc1ccccc1 [Phenylacetylglycine],147.23 Å²,–,–
CC1=C(C/C=C(\C)CCC[C@H](C)CCC[C@H](C)CCCC(C)C)C(=O)c2ccccc2C1=O [Phylloquinone],211.81 Å²,217.3 Å²,–
CC(C)CCCC(C)CCCC(C)CCCC(C)CC(=O)O (configuration not stated) [Phytanic acid],183.17 Å²,–,–
